Series [1] relates to rVSV-ΔG-mCherry-infected PBMCs from older donors. It is filed as cell-based, human.
Series [2] has as its system T cells in rVSV-ΔG-mCherry-infected PBMCs. It is filed as cell-based, human.
For series [3] the test system is unchanged. It is filed as cell-based, human. The source holds these as a separate data set.
Series [4] deals with rVSV-infected PBMCs from older donors. Type of series: cell-based, human.
The test system of series [5] is rVSV-ΔG-mCherry-infected PBMCs.
The test system of series [6] is T cells in rVSV-ΔG-mCherry-infected PBMCs. The series can be described thus: On-age and off-age scores from T-cell image embeddings. It is filed as cell-based, human. The following applies: T cells from older donors vs untreated controls.
For another series, the system named is late stage COVID-19. The following applies: cited from earlier work.

Where a name gives a salt, the structure may show the parent alone.

For `CC(C)[C@]12O[C@H]1[C@@H]1O[C@@]13[C@@]1(C)CCC4=C(COC4=O)[C@@H]1C[C@@H]1O[C@@]13C2=O` [Triptonide], in series [1], the “IL-1β level vs old untreated control PBMCs” value is on record as “significant differences at one or more doses”; the “MCP1 level vs old untreated control PBMCs” value is listed as “significant, dose-dependent reduction”; the “TNFα level vs old untreated control PBMCs” value is “significant differences at one or more doses”. Also, in series [2], the “T-cell age score / aging model readout vs old untreated controls” value is given as “from an older phenotype to a younger phenotype”. Further, the “percentage of reticular T-cell mitochondria” value in series [3] was “dose-dependent decrease”. Also, the “outcome of screen ranked by immune aging score and COVID-19 cytokine score” value in series [4] is “identified as a therapy with potential for rejuvenating the aging immune system”. For the same compound, in series [5], the “less T cells relative to vehicle-only controls” value amounted to 19%; the “more dead and infected monocytes relative to vehicle-only controls” value worked out at 21%; the “percentage of T cells” value is “decrease”; the “percentage of dead cells and infected monocytes” value is “significant increase”. Moreover, in series [6], the “off-age effects (change orthogonal to age distances)” value is “significant” and the “on-age score (distance from young controls)” value was “significantly shifted”.
For `COC(=O)/C=C/C(=O)OC` [dimethyl fumarate, reference compound], in series [6], the “on-age score (distance from young controls)” value is reported as “did not improve”.
In the case of “Tocilizumab: IL-6 targeting therapy tested in late stage COVID-19”, in the series on late stage COVID-19 (15 of 20 late stage COVID-19 patients), the “patients who lowered their oxygen intake” value is 75.0%. For the same compound, the “patients with lung lesion opacity absorbed on CT scans” value in the series with late stage COVID-19 (19 patients) was 90.5%. Further, the fever after treatment entry in the series on late stage COVID-19 (within a few days after treatment) is recorded as “returned to normal”.
